Active and inactive are the calls of the source. No cut-off for these calls is given here.
Legend:
[1] = target: T1, Mitogen-activated protein kinase 14 (Homo sapiens, UniProt Q16539); assay: Inhibition of human recombinant untagged p38alpha expressed in Escherichia coli using ATF2 as substrate incubated for 60 mins in presence of [33P]-ATP by scintillation counting method
TGF-beta receptor type-1 = target: T2, TGF-beta receptor type-1 (Homo sapiens, UniProt P36897); assay: Inhibition of human recombinant GST-tagged ALK5 expressed in Sf9 insect cells using casein as substrate incubated for 60 mins in presence of [33P]-ATP by scintillation counting method
T2 sequence (P36897 whole entry): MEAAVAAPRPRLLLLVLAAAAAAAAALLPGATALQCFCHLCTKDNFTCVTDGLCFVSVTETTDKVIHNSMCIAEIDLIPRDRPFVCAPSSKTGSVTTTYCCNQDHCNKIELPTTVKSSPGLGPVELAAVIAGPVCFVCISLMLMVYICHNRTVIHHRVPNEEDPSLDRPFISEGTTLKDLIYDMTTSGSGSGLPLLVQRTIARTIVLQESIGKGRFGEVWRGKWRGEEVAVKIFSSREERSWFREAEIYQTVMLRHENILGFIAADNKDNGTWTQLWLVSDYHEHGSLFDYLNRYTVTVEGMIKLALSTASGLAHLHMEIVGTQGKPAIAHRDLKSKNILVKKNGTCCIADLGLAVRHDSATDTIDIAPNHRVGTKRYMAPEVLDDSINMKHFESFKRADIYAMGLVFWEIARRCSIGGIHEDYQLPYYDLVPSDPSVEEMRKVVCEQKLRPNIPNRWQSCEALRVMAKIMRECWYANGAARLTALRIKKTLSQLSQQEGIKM

[2] = target: T3, TGF-beta receptor type-1 (Homo sapiens) (UniProt P36897); assay: Inhibition of ALK5 in human SPC-A1 cells assessed as reduction in TGFbeta1-induced Smad2 phosphorylation at 0.1 to 0.5 uM incubated for 36 hrs by Western blot analysis; assay type: cell-based
T3 sequence (whole entry): T2 sequence (P36897 whole entry)

[3] = target: T1, Mitogen-activated protein kinase 14; assay: Potency index, ratio of IC50 for LY-2157299 to IC50 for test compound for inhibition of human recombinant untagged p38alpha expressed in Escherichia coli using ATF2 as substrate incubated for 60 mins in presence of [33P]-ATP by scintillation counting method
[4] = target: T1, Mitogen-activated protein kinase 14; assay: Potency index, ratio of IC50 for EW-7197 to IC50 for test compound for inhibition of human recombinant untagged p38alpha expressed in Escherichia coli using ATF2 as substrate incubated for 60 mins in presence of [33P]-ATP by scintillation counting
[5] = target: T3, TGF-beta receptor type-1 (Homo sapiens); assay: Inhibition of ALK5 in human HUVEC cells assessed as reduction in TGFbeta1-induced cell motility at 10 uM incubated for 0 to 48 hrs by wound healing assay; assay type: cell-based
[6] = target: T3, TGF-beta receptor type-1 (Homo sapiens); assay: Inhibition of ALK5 in human HepG2 cells assessed as reduction in TGFbeta1-induced Smad2 phosphorylation incubated for 36 hrs by Western blot analysis; assay type: cell-based
[7] = target: T3, TGF-beta receptor type-1 (Homo sapiens); assay: Potency index, ratio of IC50 for EW-7197 to IC50 for test compound for inhibition of human recombinant GST-tagged ALK5 expressed in Sf9 insect cells using casein as substrate incubated for 60 mins in presence of [33P]-ATP by scintillation counting method
[8] = target: T3, TGF-beta receptor type-1 (Homo sapiens); assay: Potency index, ratio of IC50 for LY-2157299 to IC50 for test compound for inhibition of human recombinant GST-tagged ALK5 expressed in Sf9 insect cells using casein as substrate incubated for 60 mins in presence of [33P]-ATP by scintillation counting method

T1 sequence (Q16539 whole entry): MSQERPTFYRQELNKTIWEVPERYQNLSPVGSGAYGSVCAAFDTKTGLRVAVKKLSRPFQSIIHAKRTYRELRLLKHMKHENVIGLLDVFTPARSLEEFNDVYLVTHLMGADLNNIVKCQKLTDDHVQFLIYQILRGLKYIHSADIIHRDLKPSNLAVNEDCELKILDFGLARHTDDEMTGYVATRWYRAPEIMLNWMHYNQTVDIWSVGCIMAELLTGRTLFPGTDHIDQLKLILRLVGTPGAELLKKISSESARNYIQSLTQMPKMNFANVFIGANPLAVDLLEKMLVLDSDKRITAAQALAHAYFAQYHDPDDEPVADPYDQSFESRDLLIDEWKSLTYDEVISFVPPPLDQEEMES

Row | Compound | IC50 [1] [nM] | IC50 (TGF-beta receptor type-1) [nM] | further results
1 | Cc1cccc(NCc2nc(-c3cc4cnccc4s3)c(-c3cccc(C)n3)[nH]2)c1 | 2220 | 19 | 
2 | Cc1cccc(-c2[nH]c(CNc3ccccc3F)nc2-c2cc3cnccc3s2)n1 | 6060 | 23 | 
3 | Cc1cccc(-c2[nH]c(CNc3ccccc3)nc2-c2ccc3nsnc3c2)n1 | 763 | 14 | 
4 | Cc1cccc(-c2[nH]c(CNc3ccccc3C)nc2-c2ccc3nsnc3c2)n1 | 899 | 21 | 
5 | Cc1ccc(NCc2nc(-c3cc4cnccc4s3)c(-c3cccc(C)n3)[nH]2)cc1 | > 10000 | 43 | 
6 | Cc1cccc(-c2[nH]c(CNc3ccccc3)nc2-c2cc3cnccc3s2)n1 | 4400 | 25 | 
7 | Cc1cccc(-c2[nH]c(CNc3ccc(F)cc3)nc2-c2ccc3nsnc3c2)n1 | 831 | 10 | 
8 | Cc1cccc(-c2[nH]c(CNc3ccccc3C)nc2-c2cc3cnccc3s2)n1 | 2440 | 14 | 
9 | Cc1cccc(-c2[nH]c(CNc3ccc(F)cc3)nc2-c2cc3cnccc3s2)n1 | 4840 | 42 | 
10 | Cc1ccc(NCc2nc(-c3ccc4nsnc4c3)c(-c3cccc(C)n3)[nH]2)cc1 | 7700 | 22 | 
11 | Cc1cccc(NCc2nc(-c3ccc4nsnc4c3)c(-c3cccc(C)n3)[nH]2)c1 | 513 | 13 | 
12 | Cc1cccc(-c2[nH]c(CNc3ccccc3F)nc2-c2ccc3nsnc3c2)n1 | 1170 | 11 | 
13 | Cc1cccc(-c2[nH]c(CNc3cccc(F)c3)nc2-c2ccc3nsnc3c2)n1 | 148 | 8 | inhibition [2]: Active; Ratio IC50 [3]: 3.3; Ratio IC50 [4]: 19.9; inhibition [5]: Active; inhibition [6]: Dose-dependent effect; Ratio IC50 [7]: 1.8; Ratio IC50 [8]: 16.1
14 | Cc1cccc(-c2[nH]c(CNc3cccc(F)c3)nc2-c2cc3cnccc3s2)n1 | 1520 | 17 | 
